Experimental data: patent US20230145305A1, “COMPOUNDS USEFUL AS KINASE INHIBITORS” (Fochon Biosciences, Ltd., priority 2020, published 2023)
pIC50: −log10 of the molar value.

Each molecule was assayed on OCI-LY10 cells (assay: Cell proliferation assay (MTS) in OCI-LY10 cells). Details: Homo sapiens; inhibition of OCI-LY10 cells proliferation, 72 h incubation, MTS, absorbance at 490 nm; read-out: OCI-LY10 IC50.
Type: cell-based
Source text: MTS testing kit was purchased from Promega (Madison, Wis., USA). The RPMI-1640, Fetal bovine serum and Penicillin-Streptomycin were purchased from BI (Biological Industries, Beit Haemek, Israel). Dimethyl sulfoxide (DMSO) was purchased from Sigma (St. Louis., Mo., USA). […] To investigate whether a compound is able to inhibit the activity of BTK in cells, a mechanism-based assay using OCI-LY10 cells was developed. In this assay, inhibition of BTK was detected by the inhibition of OCI-LY10 cells proliferation. Cells were plated into 96-well plates at a density of 10000 cells/well. Plates were incubated at 37° C., with 5% CO2 for 4 h. […] Plates were incubated at 37° C., with 5% CO2 for 72 h. 20 μl MTS was added into each well and the plates were incubated at 37° C., with 5% CO2 for exactly 2 h. The absorbance was measured by a microplate reader at 490 nm. IC50 was calculated using GraphPad Prism 5.0 software. Select compounds prepared as described above were assayed according to the biological procedures described herein.

pIC50 | SMILES
8.15 | COc1ccc(F)cc1C(=O)NCc1ccc(-c2nn([C@@H](C)C(F)(F)F)c3c(=O)[nH]nc(N)c23)cc1 [Example 40a, (S)-N-(4-(4-amino-7-oxo-1-(1,1,1-trifluoropropan-2-yl)-6,7-dihydro-1H-pyrazolo[3,4-d]pyridazin-3-yl)benzyl)-5-fluoro-2-methoxybenzamide]
9.00 | COc1ccc(F)cc1C(=O)NCc1ccc(-c2nn(C(C)(C)C)c3c(=O)[nH]nc(N)c23)cc1 [Example 66, N-(4-(4-amino-1-(tert-butyl)-7-oxo-6,7-dihydro-1H-pyrazolo[3,4-d]pyridazin-3-yl)benzyl)-5-fluoro-2-methoxybenzamide]
8.70 | COc1ccc(F)cc1C(=O)NCc1ccc(-c2cn([C@@H]3CCN(S(=O)(=O)C4CC4)C3)c3c(=O)[nH]nc(N)c23)cc1 [Example 112, (R)-N-(4-(4-amino-1-(1-(cyclopropylsulfonyl)pyrrolidin-3-yl)-7-oxo-6,7-dihydro-1H-pyrrolo[2,3-d]pyridazin-3-yl)benzyl)-5-fluoro-2-methoxybenzamide]
9.00 | COc1ccc(F)cc1C(=O)NCc1ccc(-c2cn(C3CC(F)(F)C3)c3c(=O)[nH]nc(N)c23)cc1 [Example 54, N-(4-(4-amino-1-(3,3-difluorocyclobutyl)-7-oxo-6,7-dihydro-1H-pyrrolo[2,3-d]pyridazin-3-yl)benzyl)-5-fluoro-2-methoxybenzamide]
7.07 | COc1ccc(F)cc1C(=O)NCc1ccc(-n2nc(C3CCCC3)c3ccnc(N)c32)cc1 [Example 14, N-(4-(7-amino-3-cyclopentyl-1H-pyrazolo [3,4-c]pyridin-1-yl)benzyl)-5-fluoro-2-methoxybenzamide]
7.34 | COc1ccc(F)cc1C(=O)NCc1ccc(-c2nn(C(C)(C)CF)c3c(=O)[nH]nc(N)c23)cc1 [Example 83, N-(4-(4-amino-1-(1-fluoro-2-methylpropan-2-yl)-7-oxo-6,7-dihydro-1H-pyrazolo[3,4-d]pyridazin-3-yl)benzyl)-5-fluoro-2-methoxybenzamide]
7.49 | COc1ccc(F)cc1C(=O)NCc1ccc(-c2cn(C3CCCC3)c3c(=O)[nH]nc(N)c23)cn1 [Example 45, N-((5-(4-amino-1-cyclopentyl-7-oxo-6,7-dihydro-1H-pyrrolo[2,3-d]pyridazin-3-yl)pyridin-2-yl)methyl)-5-fluoro-2-methoxybenzamide]
8.30 | COc1ccc(F)cc1C(=O)NCc1ccc(-c2nn(C(C)C(C)C)c3c(=O)[nH]nc(N)c23)cc1 (stereo not drawn) [Example 69, N-(4-(4-amino-1-(3-methylbutan-2-yl)-7-oxo-6,7-dihydro-1H-pyrazolo[3,4-d]pyridazin-3-yl)benzyl)-5-fluoro-2-methoxybenzamide]
7.62 | COc1ccc(F)cc1C(=O)NCc1ccc(-c2cn([C@@H]3C[C@@H]3F)c3c(=O)[nH]nc(N)c23)cc1 [Example 57, N-(4-(4-amino-1-((1R,2S)-2-fluorocyclopropyl)-7-oxo-6,7-dihydro-1H-pyrrolo[2,3-d]pyridazin-3-yl)benzyl)-5-fluoro-2-methoxybenzamide]
7.21 | COc1ccc(F)cc1C(=O)NCc1ccc(-c2cn([C@@H]3C[C@@H]3F)c3c(=O)[nH]nc(N)c23)cc1F [Example 59, N-(4-(4-amino-1-((1R,2S)-2-fluorocyclopropyl)-7-oxo-6,7-dihydro-1H-pyrrolo[2,3-d]pyridazin-3-yl)-2-fluorobenzyl)-5-fluoro-2-methoxybenzamide]
7.36 | COc1ccc(F)cc1C(=O)NCc1ccc(-n2c(=O)n(C3CCCC3)c3ccnc(N)c32)cc1 [Example 22, N-(4-(4-amino-1-cyclopentyl-2-oxo-1,2-dihydro-3H-imidazo[4,5-c]pyridin-3-yl)benzyl)-5-fluoro-2-methoxybenzamide]
9.00 | COc1ccc(F)cc1C(=O)NCc1ccc(-n2nc(C3CCCC3)c3c(=O)[nH]nc(N)c32)cc1 [Example 16, N-(4-(7-amino-3-cyclopentyl-4-oxo-4,5-dihydro-1H-pyrazolo[3,4-d]pyridazin-1-yl)benzyl)-5-fluoro-2-methoxybenzamide]
